From a compilation of properties of binary mixtures (doi:10.1016/j.fluid.2022.113559)

Assay: xn = mol fraction of the nth substance listed
Settings: 101 kPa, x1 = 0.3333

Compound: CCOS(=O)(=O)[O-].CC[n+]1ccn(C)c1 + CS(C)=O
- viscosity (283.15 K): 4.35 mPa·s
- viscosity (298.15 K): 3.16 mPa·s
- viscosity (303.15 K): 2.83 mPa·s
- viscosity (308.15 K): 2.53 mPa·s
- viscosity (318.15 K): 2.02 mPa·s
- viscosity (323.15 K): 1.82 mPa·s
- viscosity (328.15 K): 1.64 mPa·s
- viscosity (333.15 K): 1.5 mPa·s
- viscosity (338.15 K): 1.39 mPa·s
- viscosity (343.15 K): 1.32 mPa·s
- viscosity (353.15 K): 1.24 mPa·s

Compound: CC[n+]1ccn(C)c1.N#C[S-] + CS(C)=O
- viscosity (283.15 K): 3.95 mPa·s
- viscosity (288.15 K): 3.58 mPa·s
- viscosity (298.15 K): 2.92 mPa·s
- viscosity (303.15 K): 2.63 mPa·s
- viscosity (313.15 K): 2.12 mPa·s
- viscosity (318.15 K): 1.91 mPa·s
- viscosity (323.15 K): 1.73 mPa·s
- viscosity (333.15 K): 1.44 mPa·s
- viscosity (338.15 K): 1.34 mPa·s
- viscosity (343.15 K): 1.26 mPa·s
- viscosity (348.15 K): 1.21 mPa·s
- viscosity (353.15 K): 1.19 mPa·s
